Paper PMC4742142, “Identification of novel, in vivo active Chk1 inhibitors utilizing structure guided drug design” (Oncotarget, 2015)

Tests used:
HT29 cells = assay: Clonogenicity (colony formation) assay; assay type: cell-based, human; conditions: HT29, 300 nM V158411 with gemcitabine, camptothecin or SN38
Procedure: HT29 cells were plated at a density of 300 cells per well in 6-well plates and allowed to attach for 4 hours. Cells were treated with gemcitabine, camptothecin or SN38 in the absence or presence of V158411 for 24 hours followed by drug free media for a further 14 days. Resulting colonies were stained and fixed with 0.1% crystal violet in 10% formaldehyde.

[1] = system: panel of human cancer cell lines; assay: Single agent cytotoxicity, whole panel; assay type: cell-based; conditions: range over the cell lines, read-out: GI50s across the panel
Procedure: All cells were obtained from the American Type Culture Collection and maintained as low passage stocks. Cells were routinely cultured in DMEM or RPMI1640 containing 10% FCS and 1% penicillin / streptomycin (Invitrogen). The cytotoxicity of V158411 was determined following exposure of cells in 96 well plates using a 10-point titration for 72 hours. Cell proliferation was determined using sulphorhodamine B staining following protein precipitation with 10% TCA.

Chk1 [2] = molecular target: T1, Chk1 (Homo sapiens, UniProt O14757); assay: Wide panel binding assay (386 kinases); conditions: Chk1, 50 nM
T1 sequence (O14757 1-476): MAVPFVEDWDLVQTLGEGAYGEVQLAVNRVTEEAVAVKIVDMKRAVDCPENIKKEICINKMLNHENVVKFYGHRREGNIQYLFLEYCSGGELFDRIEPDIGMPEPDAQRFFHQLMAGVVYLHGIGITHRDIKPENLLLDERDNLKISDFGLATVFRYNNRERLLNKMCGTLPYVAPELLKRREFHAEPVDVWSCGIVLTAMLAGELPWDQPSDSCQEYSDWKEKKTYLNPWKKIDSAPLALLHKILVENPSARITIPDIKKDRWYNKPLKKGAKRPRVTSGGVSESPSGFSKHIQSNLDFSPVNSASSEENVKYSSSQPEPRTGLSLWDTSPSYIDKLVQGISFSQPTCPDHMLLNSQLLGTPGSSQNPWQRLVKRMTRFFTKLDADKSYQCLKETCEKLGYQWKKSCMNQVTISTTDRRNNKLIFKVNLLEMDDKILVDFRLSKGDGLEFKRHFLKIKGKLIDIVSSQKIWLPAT
Procedure: (§1) Selectivity against the cell cycle kinase CDK1 is considered critical for the pharmacological activity of Chk1 inhibitors as inhibiting it would prevent the G2 checkpoint abrogation and entry into mitosis; critical for the potentiation of cytotoxic DNA damage. Against a panel of 386 kinases in a wide panel binding assay, V158411 inhibited the activity of one kinase (Chk1) in the range 99-100%, three kinases 90-99% and 19 kinases 65-90% at 50 nM (Supplementary Table 1).

panel of 386 kinases = assay: Wide panel binding assay, whole panel; conditions: at pharmacologically relevant doses
Procedure: as §1

Chk1 [3] = molecular target: T1, Chk1; assay: In vitro kinase assay, Chk1; assay type: biochemical
Procedure: Kinase assays were performed as previously described.

`CN(C)CC(C)(C)COc1ccc2[nH]c(-c3cc(NC(=O)c4cnn(Cc5ccccc5)c4)c[nH]c3=O)cc2c1` [V158411] was tested, and the “effect on fraction of cells killed in colony formation” value (HT29 cells) was “significantly increased the fraction of cells killed by all three agents”, the IC50 [1] was 500 to 9500 nM and the “Percent inhibition at 50 nM” value (Chk1 [2]; 0.05 µM) was 99-100%. For the same molecule, the inhibition at 0.05 µM (Chk1 [2]; read-out: Percent inhibition at 50 nM) was 100%, the “selectivity for Chk1 over the majority of the kinases in the panel” value (panel of 386 kinases) was over 100 fold and the IC50 (Chk1 [3]) was 4.4 nM.
